# Reference: patent US12570610B2, “Macromolecule-supported aminobenzazepine compounds” (Bolt Biotherapeutics, Inc., priority 2019, dated 2026)
# Assays:
# [1] = biological target: T1, human TLR8 (Homo sapiens, UniProt Q9NR97); experiment: HEK293 NFKB reporter cells expressing human TLR8 (HEK Reporter Assay); format: cell-based; conditions: read-out: HEK293 hTLR8 EC50
# T1 construct: host or cells: HEK293 reporter cells
# T1 sequence (Q9NR97 27-1041): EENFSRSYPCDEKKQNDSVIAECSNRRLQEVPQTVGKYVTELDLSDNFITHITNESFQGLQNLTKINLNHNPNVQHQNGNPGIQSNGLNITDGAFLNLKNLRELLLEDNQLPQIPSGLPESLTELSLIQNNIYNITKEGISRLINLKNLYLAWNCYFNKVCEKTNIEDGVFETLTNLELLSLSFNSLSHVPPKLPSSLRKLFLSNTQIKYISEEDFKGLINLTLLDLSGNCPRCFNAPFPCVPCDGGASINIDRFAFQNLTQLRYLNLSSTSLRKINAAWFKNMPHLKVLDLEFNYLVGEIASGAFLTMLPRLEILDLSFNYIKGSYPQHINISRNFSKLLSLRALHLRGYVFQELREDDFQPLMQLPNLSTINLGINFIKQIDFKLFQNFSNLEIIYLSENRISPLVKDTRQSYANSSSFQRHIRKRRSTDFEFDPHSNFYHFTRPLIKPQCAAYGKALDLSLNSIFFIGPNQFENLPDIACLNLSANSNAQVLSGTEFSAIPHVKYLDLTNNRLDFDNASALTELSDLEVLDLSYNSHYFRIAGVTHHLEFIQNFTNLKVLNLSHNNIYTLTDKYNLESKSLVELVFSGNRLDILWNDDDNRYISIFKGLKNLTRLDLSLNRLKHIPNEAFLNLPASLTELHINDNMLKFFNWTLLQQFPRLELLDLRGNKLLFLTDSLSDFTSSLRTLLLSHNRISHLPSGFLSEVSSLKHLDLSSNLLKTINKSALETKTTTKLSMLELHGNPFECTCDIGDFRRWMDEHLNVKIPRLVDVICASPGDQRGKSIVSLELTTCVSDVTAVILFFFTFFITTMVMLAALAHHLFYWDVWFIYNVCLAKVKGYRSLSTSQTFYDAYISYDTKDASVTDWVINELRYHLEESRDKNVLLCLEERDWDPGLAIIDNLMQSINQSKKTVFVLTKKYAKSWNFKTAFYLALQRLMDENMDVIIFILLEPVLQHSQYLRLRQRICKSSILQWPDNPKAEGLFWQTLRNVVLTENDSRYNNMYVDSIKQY
# Protocol: (§1) Each compound was synthesized and purified by the methods in the Examples provided herein, characterized by mass spectrometry, and shown to have the mass indicated. Activity against HEK293 NFKB reporter cells expressing human TLR7 or human TLR8 was measured according to method described in Example 67.
# (§2) Example 67: HEK Reporter Assay
# (§3) HEK293 reporter cells expressing human TLR7 or human TLR8 were purchased from Invivogen and vendor protocols were followed for cellular propagation and experimentation. Briefly, cells were grown to 80-85% confluence at 5% CO2 in DMEM supplemented with 10% FBS, Zeocin, and Blasticidin. Cells were then seeded in 96-well flat plates at 4×10^4 cells/well with substrate containing HEK detection medium and immunostimulatory molecules. Activity was measured using a plate reader at 620-655 nm wavelength.
# [2] = biological target: T2, human TLR7 (Homo sapiens, UniProt Q9NYK1); experiment: HEK293 NFKB reporter cells expressing human TLR7 (HEK Reporter Assay); format: cell-based; conditions: read-out: HEK293 hTLR7 EC50
# T2 construct: host or cells: HEK293 reporter cells
# T2 sequence (Q9NYK1 27-1049): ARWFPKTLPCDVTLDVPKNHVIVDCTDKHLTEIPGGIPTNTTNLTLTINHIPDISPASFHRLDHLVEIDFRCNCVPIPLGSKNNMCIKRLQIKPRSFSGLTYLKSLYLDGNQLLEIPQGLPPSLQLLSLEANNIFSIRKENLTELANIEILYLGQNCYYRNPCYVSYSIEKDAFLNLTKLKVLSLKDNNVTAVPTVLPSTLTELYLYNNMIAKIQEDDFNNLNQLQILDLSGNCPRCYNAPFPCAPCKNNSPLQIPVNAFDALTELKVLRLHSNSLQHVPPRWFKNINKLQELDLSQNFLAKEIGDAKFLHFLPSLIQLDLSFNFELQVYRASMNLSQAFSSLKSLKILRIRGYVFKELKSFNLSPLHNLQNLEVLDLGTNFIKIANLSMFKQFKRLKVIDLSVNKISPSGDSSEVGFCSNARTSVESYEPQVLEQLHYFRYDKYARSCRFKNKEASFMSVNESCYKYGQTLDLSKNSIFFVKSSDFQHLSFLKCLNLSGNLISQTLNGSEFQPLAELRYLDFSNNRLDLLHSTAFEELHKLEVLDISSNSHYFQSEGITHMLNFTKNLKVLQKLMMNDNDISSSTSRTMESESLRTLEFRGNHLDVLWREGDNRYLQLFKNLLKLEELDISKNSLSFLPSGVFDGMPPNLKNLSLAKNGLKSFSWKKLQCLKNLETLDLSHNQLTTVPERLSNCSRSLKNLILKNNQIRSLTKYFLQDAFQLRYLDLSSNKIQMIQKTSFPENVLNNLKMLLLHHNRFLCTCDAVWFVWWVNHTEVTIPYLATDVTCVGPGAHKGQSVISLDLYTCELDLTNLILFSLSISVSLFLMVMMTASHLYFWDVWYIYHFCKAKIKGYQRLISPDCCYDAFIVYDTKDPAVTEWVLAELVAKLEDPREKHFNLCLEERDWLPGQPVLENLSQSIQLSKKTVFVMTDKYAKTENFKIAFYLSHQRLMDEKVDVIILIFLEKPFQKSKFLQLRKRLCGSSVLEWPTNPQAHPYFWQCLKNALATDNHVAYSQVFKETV
# Protocol: as §1, §2, §3
Structure (SMILES),EC50 [1] [µM],EC50 [2] [µM]
CCCN(CCC)C(=O)C1=Cc2ccc(-c3cccc(S(=O)(=O)Nc4nccs4)c3)cc2N=C(N)C1 [Bz-35],> 9,> 9
CCCN(CCC)C(=O)C1=Cc2ccc(-c3cccc(S(=O)(=O)NC(=O)c4ccccc4)c3)cc2N=C(N)C1 [Bz-37],> 9,> 9
CCCN(CCC)C(=O)C1=Cc2ccc(-c3cc(C(F)(F)F)cc(S(=O)(=O)N4CC(CN(C)C)C4)c3)cc2N=C(N)C1 [Bz-40],> 9,0.332
CCCN(CCc1c[nH]cn1)C(=O)C1=Cc2ccc(-c3cccc(S(=O)(=O)N4CC(CO)C4)c3)cc2N=C(N)C1 [Bz-41],> 9,> 9
CCCN(Cc1ccc(CN2CCN(C(=O)OC(C)(C)C)CC2)cc1)C(=O)C1=Cc2ccc(-c3cccc(S(=O)(=O)N4CC(CO)C4)c3)cc2N=C(N)C1 [Bz-44],1.02,
CCCN(CCC)C(=O)C1=Cc2ccc(-c3c(C)n[nH]c3C)cc2N=C(N)C1 [Bz-45],,> 9
CCN(CC)C(=O)C1=Cc2ccc(-c3cccc(S(=O)(=O)N4CC(CO)C4)c3)cc2N=C(N)C1 [Bz-50],> 9,
CCCNC(=O)C1=Cc2ccc(-c3cccc(S(=O)(=O)N4CC(CO)C4)c3)cc2N=C(N)C1 [Bz-58],> 9,> 9
CCCN(Cc1ccc(CN)cc1)C(=O)C1=Cc2ccccc2N=C(N)C1 [Bz-59],,> 9
CCCN(CCOC)C(=O)C1=Cc2ccc(-c3cccc(S(=O)(=O)N4CC(CO)C4)c3)cc2N=C(N)C1 [Bz-60],,> 9
CCCN(CCc1ccc(OC)cc1)C(=O)C1=Cc2ccc(-c3cccc(S(=O)(=O)N4CC(CN)C4)c3)cc2N=C(N)C1 [Bz-61],5.85,> 9
CCCN(Cc1ccc(CN(C)C)cc1)C(=O)C1=Cc2ccc(-c3cccc(S(=O)(=O)N4CC(CN)C4)c3)cc2N=C(N)C1 [Bz-62],> 9,> 9
CCCN(CCC)C(=O)C1=Cc2ccc(C(=O)COC)cc2N=C(N)C1 [Bz-65],5.9,3.93
CCCN(NCC)C(=O)C1=Cc2ccc(-c3cccc(S(=O)(=O)N4CC(CO)C4)c3)cc2N=C(N)C1 [Bz-71],,> 9
CCCN(CCC)C(=O)C1=Cc2ccc(CCCCCN)cc2N=C(N)C1 [Bz-74],,> 9
CCCN(CCC(F)(F)F)C(=O)C1=Cc2ccc(C(=O)Nc3ccccc3)cc2N=C(N)C1 [Bz-75],,> 9
